Test [1] relates to Arabidopsis seedlings. Description: Hypocotyl length response to BL, short-day grown seedlings. The test is classed as in vivo.
In test [2] the test system is BES1. Kind of test: BES1 phosphorylation status by immunoblot with anti-BES1. The test is classed as in vivo, Arabidopsis. As for the experimental part:
To determine whether the growth inhibitory effect caused by the over-expression of BKI1-YFP was due to an inhibition of BRI1 signaling, we tested the phosphorylation status of a downstream biochemical marker, BES1 (10), by immunoblot analysis.
Seedlings were grown in short day photoperiods for seven days. At least ten short-day grown seedlings were measured. In FIGS. 2A-B the pBKI1::GUS line was used as a control (control). RNAi-2 and RNAi-7 were two independent RNAi knockdown lines for BKI1. In FIG. 2 C-E, phenotype of plants overexpressing BKI1-FLAG, with Col-0 (left) and a BKI1-FLAG line (right) are shown. 2C. Short-day grown seedlings. 2D. Long-day grown seedlings. 2E. Long-day grown adult plants. In FIG. 2F, leaf morphology of seedlings grown in short days. Col-0 (right) and a BKI1-FLAG line (left) are shown. In FIG. 2G, over-expression of BKI1-YFP leads to a reduced response (hypocotyl length) to BL. At least twenty short-day grown seedlings were measured. In FIG. 2H, over-expression of BKI1-YFP leads to an enhanced response to BRZ220. At least twenty dark-grown seedlings were measured. In FIG. 2I, over-expression of BKI1-YFP results in reduced accumulation of dephosphorylated BES1. Immunoblots with anti-BES1 show levels of phosphorylated BES1 (pBES1) and dephosphorylated BES1. Bottom band: loading control. In FIG. 2J, Over-expression of BKI1-YFP alters the expression of BR-regulated genes. […]
For orientation: Immunoblotting shows a protein as a band on a membrane.

The subject of test [3] is CPD. Description: qRT-PCR of brassinosteroid-regulated gene CPD. The test is classed as in vivo, Arabidopsis. The settings on record: 100 nM BL for 2.5 hrs. As for the experimental part: (§1) Plants were treated with 100 nM BL, or a mock treatment for 2.5 hrs. Total RNA was extracted using a Qiagen RNAeasy kit (Valencia, Calif.), and the first strand cDNA was synthesized using Invitrogen Superscript III First-Strand cDNA Synthesis kit. cDNAs were combined with SYBR master mix for PCR. Primers for each gene are shown as follows. CPD (At5g05690): 5′-TTACCGCAAAGCCATCCAA-3′ (SEQ ID NO:10) and 5′-[…]-3′ (SEQ ID NO:11); DWF4 (At3g50660): 5′-[…]-3′ (SEQ ID NO:12) and 5′-[…]-3′ (SEQ ID NO:13); Saur-AC1 (At4g38850): 5′-[…]-3′ (SEQ ID NO:14) and 5′-[…]-3′ (SEQ ID NO:15); and BKI1: 5′-GCTCCGGCGTCGATGA-3′ (SEQ ID NO:16) and 5′-[…]-3′ (SEQ ID NO:17). A U-box gene (At5g15400) was used to normalize the data (5′-[…]-3′ (SEQ ID NO:18) and 5′-TGCTGCCCAACATCAGGTT-3′ (SEQ ID NO:19)). PCR reactions were performed in triplicate or quadruplicate with a Bio-Rad iCycler, and the data were collected and analyzed with Bio-Rad MyiQ Single-Color Real-Time PCR Detection System.
Background: Real-time PCR tracks product formation cycle by cycle.

The subject of test [4] is DWF4. Kind of test: qRT-PCR of brassinosteroid-regulated gene DWF4. The test is classed as in vivo, Arabidopsis. The settings on record: 100 nM BL for 2.5 hrs. As for the experimental part:
as §1

For test [5], the system named is Saur-AC1. Kind of test: qRT-PCR of brassinosteroid-regulated gene Saur-AC1. Type of test: in vivo, Arabidopsis. As to conditions: Plus BL (100 nM, 2.5 hrs). As for the experimental part: as §1
Test [6] concerns plasma membrane-association of BKI1-YFP. Kind of test: Subcellular localization of BKI1-YFP in root tip cells (confocal). The settings on record: for plasma membrane-association of BKI1-YFP following BL treatment: wild-type background, grown on 1 μM BRZ220, treated with 1 μM BL. Type of test: cell-based, Arabidopsis. As for the experimental part:
To investigate where in the pathway BKI1 acts, we examined the subcellular localization of the BKI1-YFP fusion protein in plants. BKI1-YFP was localized to both the plasma membrane and the cytosol in root tip cells (FIG. 3A). When the BKI1-YFP line was grown on medium containing 1 μM BRZ220, which reduces the levels of endogenous brassinosteroids (22), the fluorescent signal on the cell surface was enhanced (FIG. 3B).
In FIG. 3A, BKI1-YFP is localized to the plasma membrane and cytosol on MS medium. In FIG. 3B, BRZ220 enhances the association of BKI1-YFP to the plasma membrane. Seedlings were grown on MS medium containing 1 μM BRZ220. In FIG. 3C, BL enhances BKI1-YFP dissociation from the plasma membrane. Seedlings were grown on MS medium containing 1 μM BL. […] Seedlings were grown on MS medium containing 1 μM of BRZ220 and treated with 1 μM BL. J-L. BKI1-YFP is associated with the plasma membrane in bri1-116. Seedlings were grown on MS medium containing 1 μM of BRZ220. bri1-116 is a null allele of BRI1 (19). […] Seedlings were grown on MS medium containing 1 μM BL. […] Seedlings were grown on MS medium containing 1 μM BRZ220. 3D, G, J, M, and P are untreated; E, H, K, N, and Q are treated with BL for 5 min, and F, I, L, O, and R are treated with BL for 10 min.
Seedlings were grown on MS medium containing 1 μM of BRZ220. The time of BL treatment is indicated. Top panels: BKI1-YFP; Lower panels: myriBKI1-YFP. […] Immunoblots with anti-GFP show levels of myriBKI1-YFP and BKI1-YFP. Bottom band: loading control. […] The total ^35S-Met labeled BRI1-KD-HIS co-precipitated by GST-BAK1-KD was defined as “1”. Five replicates were conducted. Error bars indicate standard error. 1, GST-BAK1-KD±35S-BRI1-KD-HIS; 2, GST-BAK1-KD+35S-BRI1-KD-HIS+10 μM of MBP; 3, GST-BAK1-KD+35S-BRI1-KD-HIS+10 μM of MBP-BKI1. […] Without BL, BRI1 kinase is kept in a basal state by both its own carboxyl terminal domain and by an interaction with BKI1. Brassinosteroid binding to the extracellular domain of BRI1 induces a conformational change of the kinase domain, leading to the phosphorylation of the C-terminal domain of BRI1 and BKI1, the dissociation of BKI1 from the plasma membrane, and the release of autoinhibition of BRI1. These events lead to the full activation of BRI1 and its association with BAK1 or other substrates. Plasma membrane-dissociated BKI1 may also regulate other unknown components in the brassinosteroid signaling cascade. BSU1 is a nuclear serine/threonine phosphatase involved in the dephosphorylation of BES1 (27).
The predicted full-length BKI1 was amplified by RT-PCR from total RNA of Col-0 using Pfu DNA polymerase (Stratagene), and cloned into the binary vector pCHF3 that contains a 35S promoter (10), three copies of FLAG ([…], SEQ ID NO:8) fused at the Cterminal end, and the RubisCo small subunit (rbcS) terminator. For the YFP fusion construct, full length BKI1 was cloned into a modified pCHF3 containing a 35S promoter and a C-terminal YFP tag. For the myriBKI1-YFP construct, a myristoylation site (MGICMSR, SEQ ID NO:9) was added to the N-terminus of BKI1-YFP via PCR. All constructs were confirmed by sequencing and transformed into Col-0 plants. The subcellular localization of BKI1-YFP and myriBKI1-YFP was visualized and photographed using a Leica TCS SP2 confocal microscope (Leica Microsystems, Germany).

The target of test [7] is T1, kinase domain of NIK1 (NIK1-KD) in pDBLeu (GAL4-DB fusion) (UniProt P04386 1-147; Q9LFS4 270-638, limits assumed).
T1 construct: domain: GAL4-DB;domain: kinase domain; Yeast two-hybrid bait
Kind of test: yeast two-hybrid.

The target in test [8] is T2, CLV1 kinase domain (CLV1-KD) fused with GAL4-DB (in pDBLeu) (UniProt P04386 1-147; Q9SYQ8 660-980, limits assumed).
T2 construct: domain: GAL4-DB;domain: kinase domain; Yeast two-hybrid bait
Kind of test: yeast two-hybrid.

Test [9] has as its target T3, BRL1 kinase domain (BRL1-KD) fused with GAL4-DB (in pDBLeu) (UniProt P04386 1-147; Q9ZWC8 798-1166, limits assumed).
T3 construct: domain: GAL4-DB;domain: kinase domain; Yeast two-hybrid bait
Kind of test: yeast two-hybrid.

The target of test [10] is T4, BRL3 kinase domain (BRL3-KD) fused with GAL4-DB (in pDBLeu) (UniProt P04386 1-147; Q9LJF3 794-1164, limits assumed).
T4 construct: domain: GAL4-DB;domain: kinase domain; Yeast two-hybrid bait
Description: yeast two-hybrid.

The target in test [11] is full length TTL in pDBLeu (GAL4-DB fusion) (Arabidopsis, UniProt P04386 1-147; Q9LVM5 1-324, limits assumed). Description: yeast two-hybrid.
Test [12] addresses full-length BIN2 in pDBLeu (GAL4-DB fusion) (UniProt P04386 1-147; Q39011 1-380). Kind of test: yeast two-hybrid.
Test [13] addresses T5, kinase domain of BAK1 (BAK1-KD) in pDBLeu (GAL4-DB fusion) (UniProt P04386 1-147; Q94F62 247-615, limits assumed).
T5 construct: domain: GAL4-DB;domain: kinase domain; Yeast two-hybrid bait
Kind of test: yeast two-hybrid.

As to `CC(C)[C@H](C)[C@@H](O)[C@H](O)[C@@H](C)[C@H]1CC[C@H]2[C@@H]3COC(=O)[C@H]4C[C@H](O)[C@H](O)C[C@]4(C)[C@H]3CC[C@]12C` [BL, brassinolide], in test [1] (det2-1 brassinosteroid biosynthetic mutant), the “response to BL treatment (hypocotyl length)” value is on record as “highly responsive”. Moreover, in test [1] (plants over-expressing BKI1-YFP, hypocotyl length), the “sensitivity to BL applications compared to wild type (fold less sensitive)” value is reported as “at least 100 fold”. Further, the “accumulation of dephosphorylated BES1” value is recorded as “strongly stimulated” in test [2] (det2-1, 0.1 μM BL for one hour) and “strongly stimulated” in [2] (wild type, 0.1 μM BL for one hour). For the same molecule, the results for the “expression of CPD (RNA level, WT without BL = 1.00)” value in test [3] (BKI1-YFP line) and in test [3] (WT) were 0.83±0.05 and 0.47±0.03, respectively. The “expression of DWF4 (RNA level, WT without BL = 1.00)” value in [4] (BKI1-YFP line) is listed as 0.80±0.06; in test [4] (WT), 0.27±0.01. Further, the “expression of Saur-AC1 (RNA level, WT without BL = 1.00)” value in [5] (BKI1-YFP line) is listed as 1.65±0.11; in test [5] (WT), 4.68±0.31. Moreover, the “BL-induced dissociation of BKI1-YFP from the plasma membrane” value is recorded as “no BL-induced dissociation” in test [6] (bri1-104 (kinase inactive allele)) and “failed to induce the dissociation” in test [6] (bri1-116 homozygous seedlings (null allele)). Besides, the “plasma membrane-association of BKI1-YFP” value in [6] (grown on medium containing 1 μM BL) is “reduced”. Also, the “plasma membrane-association of BKI1-YFP following BL treatment” value in test [6] (10 minutes) is reported as “undetectable”; in test [6] (after 5 minutes), “almost completely gone”.

B1: BKI1 fused with GAL4-AD (BKI1-pEXAD502), full-length BKI1 (other, not shown: large carriers)
chain: METNLQQVKNSSQTFSEKQNPKQEASPSPISSTCSSPSHDFSFTISLQPLSSSSKHISPTLRSPSKTTSSYQQTDPFAVDLSPADEIFFHGHLLPLHLLSHLPVSPRTSTGSYNDGFTLPVKDILPDQPTNNNNNTENAITNISTEAKDDNTEDKAEGEIRVKTKPIKSFSLFGLSKWRKGFESNEREQEQQQQKIKKPMSLDLSHAVKKYIRMLFQKRGNGTQFWNRRQTSSYSFSSSLMGPNGNSKTMINGSYNKRDLIRGRRGELFSAPASMRTSPTNSGHLRVSTAGLSSSSGSTSSSSSDSTMEELQAAIQAAIAHCKNSSAVDRDDKVKDS
notes: Yeast two-hybrid prey; it is put N-terminal here; also called BKI1-FL; At5g42750
Regarding B1, the binding result in [7], in test [8], in [9], in test [10], in test [11] and in test [12] was “no binding” throughout. Further, in test [13], the binding result is given as “no binding”.

The values above are taken from patent publication US8008542B2, “Compositions, cells, and plants that include BKI1, a negative regulator of BRI1-mediated BR signaling” (The Salk Institute for Biological Studies, priority 2007, dated 2011).
